Values joined by “and” are separate entries in the source; they are usually repeats but may differ in a detail not shown here. Identical values can stand only once.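 Protocol summary: plate cells (96-well), add compound at 5 concentrations, incubate 48 h, interpolate endpoints linearly. GI50 is the concentration that inhibits growth by half. TGI: concentration producing complete growth inhibition.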
Tests used:
Test in all cases: NCI-60 cell line screen, 48 h
CCRF-CEM leukemia = tested on: CCRF-CEM leukemia
DU-145 prostate = tested on: DU-145 prostate
EKVX NSCLC = tested on: EKVX NSCLC
HCC-2998 colon = tested on: HCC-2998 colon
KM12 colon = tested on: KM12 colon
SK-MEL-28 melanoma = tested on: SK-MEL-28 melanoma
SK-OV-3 ovarian = tested on: SK-OV-3 ovarian
SNB-19 CNS = tested on: SNB-19 CNS
SR leukemia = tested on: SR leukemia
UACC-257 melanoma = tested on: UACC-257 melanoma

Compound	TGI (CCRF-CEM leukemia)	TGI (DU-145 prostate)	TGI (EKVX NSCLC)	TGI (HCC-2998 colon)	TGI (KM12 colon)	TGI (SK-MEL-28 melanoma)	TGI (SK-OV-3 ovarian)	TGI (SNB-19 CNS)	TGI (SR leukemia)	TGI (UACC-257 melanoma)	GI50 (DU-145 prostate)	GI50 (EKVX NSCLC)	GI50 (HCC-2998 colon)	GI50 (KM12 colon)	GI50 (SK-MEL-28 melanoma)	GI50 (SK-OV-3 ovarian)	GI50 (SNB-19 CNS)	GI50 (SR leukemia)	GI50 (UACC-257 melanoma)	GI50 (CCRF-CEM leukemia)
O=[N+]([O-])c1cc(C(F)(F)F)cc2n[se]nc12	10.8 µM	6.66 µM	14.1 µM	10.2 µM	20.3 µM	4.39 µM	27.5 µM	29.5 µM	4.39 µM	4.56 µM	–	–	–	–	–	–	–	–	–	–
CC1OC(OC2C(O)C(OCCc3ccc(O)c(O)c3)OC(CO)C2OC(=O)/C=C/c2ccc(O)c(O)c2)C(O)C(O)C1O (configuration not stated)	–	27.4 µM	> 100 µM	35.6 µM	> 100 µM	> 100 µM	> 100 µM	> 100 µM	> 100 µM	> 100 µM	13.5 µM	27.6 µM	19 µM	> 100 µM	52.7 µM	> 100 µM	> 100 µM	0.634 µM	> 100 µM	–
O=C1NC(c2cccc3ccccc23)Nc2ccccc21 (configuration not stated)	0.538 µM	8.11 µM	> 100 µM	0.743 µM and 0.489 µM	5.91 µM and 10.4 µM	> 100 µM	0.252 µM	> 100 µM	–	32.6 µM	0.046 µM	0.0278 µM	0.173 µM	–	–	0.0316 µM	0.0554 µM	0.0106 µM	–	0.0296 µM
O=C(Nc1cccc(-n2ccc3c(NC(=O)c4ccccc4)nccc32)c1)c1ccc(Cl)c(Cl)c1	–	0.855 µM	3.34 µM	1.27 µM	0.942 µM	2.06 µM	1.1 µM	1.89 µM	–	2.98 µM	0.22 µM	0.704 µM	0.286 µM	0.0554 µM	0.298 µM	0.0956 µM	0.219 µM	0.0408 µM	1.2 µM	–
O=C(O)CC(S)C(=O)O.[Li+].[Sb] (configuration not stated)	> 100 µM	> 100 µM	> 100 µM	–	> 100 µM	> 100 µM	–	> 100 µM	> 100 µM	> 100 µM	> 100 µM	> 100 µM	–	> 100 µM	55.5 µM	–	> 100 µM	32.9 µM	> 100 µM	57 µM
COc1ccc(C(=O)/C=C/c2c(C(F)(F)F)nc3ccccn23)cc1OC	22.1 µM	–	> 100 µM	2.23 µM	7.42 µM	> 100 µM	6.13 µM	> 22 µM	0.964 µM	> 100 µM	1.3 µM	3.39 µM	0.553 µM	0.646 µM	7.1 µM	2.38 µM	3.77 µM	0.272 µM	2.43 µM	0.46 µM
CC(C)c1ccc(C(O)(C(=O)O)c2ccc(C(C)C)cc2)cc1	> 100 µM	> 100 µM	> 100 µM	–	> 100 µM	> 100 µM	> 100 µM	> 100 µM	> 100 µM	> 100 µM	–	–	–	–	–	–	–	–	–	–
CCc1nc(N)nc(N)c1-c1ccc(N(C)Cc2ccccc2)c([N+](=O)[O-])c1	12.7 µM	31.7 µM	35 µM	8.73 µM	16.3 µM	17 µM	33.6 µM	37.3 µM	4.16 µM	14.2 µM	–	–	–	–	–	–	–	–	–	–
CN(C)C[C@@H]1CCn2cc(c3ccccc32)C2=C(C(=O)NC2=O)c2cn(c3ccccc23)CCO1	2.73 µM	> 10 µM	> 10 µM	> 10 µM	> 10 µM	8.13 µM	> 10 µM	> 10 µM	5.55 µM	> 10 µM	2.75 µM	3.92 µM	0.713 µM	1.82 µM	1.03 µM	2.08 µM	4.49 µM	1.68 µM	2.08 µM	0.459 µM
CCOC(=O)Nc1cc2c(c(N)n1)N=C(c1ccccc1)CN2	–	–	46.6 µM	0.0445 µM	49 µM	39.9 µM	17.5 µM	> 59.5 µM	> 100 µM	50.4 µM	< 0.0001 µM	< 0.0001 µM	–	< 0.0001 µM	–	0.0207 µM	< 0.0001 µM	–	–	< 0.0001 µM
COC1/C=C/OC2(C)Oc3c(C)c(O)c4c(O)c(c(/C=N/N(c5ccccc5)c5ccccc5)c(O)c4c3C2=O)NC(=O)C(C)=C/C=C/C(C)C(O)C(C)C(O)C(C)C(OC(C)=O)C1C (configuration not stated)	6.62 µM	7.96 µM	11.3 µM	6.16 µM	6.45 µM	2.43 µM	12.9 µM	12.1 µM	3.39 µM	5.44 µM	2.37 µM	2.78 µM	1.71 µM	1.65 µM	1.07 µM	6.38 µM	2.64 µM	1.4 µM	1.48 µM	1.58 µM
CCN(CC)CCNc1ccc(N=Nc2cnc3ccccc3c2)c2ccccc12	1.09 µM	3.22 µM	–	3.16 µM	2.89 µM	3.29 µM	3.2 µM	3.97 µM	2.08 µM	3.49 µM	1.83 µM	–	1.75 µM	1.56 µM	1.79 µM	1.72 µM	2.06 µM	0.59 µM	1.96 µM	0.223 µM
CN(C)c1ccc2cc3c(cc2c1)Oc1ccccc1N3.[Cl][Zn][Cl]	9.71 µM	20.9 µM	28.5 µM	31.8 µM	29.1 µM	7.04 µM	33.3 µM	52.2 µM	> 100 µM	9.36 µM	8.24 µM	7.01 µM	16.5 µM	13.2 µM	2.5 µM	17 µM	20.6 µM	3.15 µM	3.16 µM	3.26 µM
COc1cc(C(=O)c2cnc(-c3ccc4cc[nH]c4c3)[nH]2)cc(OC)c1OC	> 44.6 µM	11.1 µM	19.7 µM	4.02 µM	2.16 µM	16 µM	1.93 µM	13.7 µM	23.8 µM	17.4 µM	0.0363 µM	0.0721 µM	0.117 µM	0.0313 µM	0.454 µM	0.0358 µM	0.0409 µM	0.0302 µM	2.03 µM	0.0374 µM

Reference: PubChem BioAssay (NCI)
